Reference: paper PMC6273072, “Identification of a New Morpholine Scaffold as a P2Y12 Receptor Antagonist” (Molecules, 2016)
“And” between values parts separate entries of the source, which are not always exact repeats. Equal values may be shown once.

Tests used:
human P2Y1 receptor = biological target: T1, human P2Y1 receptor (Homo sapiens, UniProt P47900); assay: P2Y1-mediated Ca2+ mobilization in NIH3T3-P2Y1 + Gq cells (FLIPR); assay type: cell-based; settings: for inhibitory effect at P2Y1 receptor, in words: up to 100 μM
T1 construct: expressed in transfected cells
T1 sequence (P47900 whole entry): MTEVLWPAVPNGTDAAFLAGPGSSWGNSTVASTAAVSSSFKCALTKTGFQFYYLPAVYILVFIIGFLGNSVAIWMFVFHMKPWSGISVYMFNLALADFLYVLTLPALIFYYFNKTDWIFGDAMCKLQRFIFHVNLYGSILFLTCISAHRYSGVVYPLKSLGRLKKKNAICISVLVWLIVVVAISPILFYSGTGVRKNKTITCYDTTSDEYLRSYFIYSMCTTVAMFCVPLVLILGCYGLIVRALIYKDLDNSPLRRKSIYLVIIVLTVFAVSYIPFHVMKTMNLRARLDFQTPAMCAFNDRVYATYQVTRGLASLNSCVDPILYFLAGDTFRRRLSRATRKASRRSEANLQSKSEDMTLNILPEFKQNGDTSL
Experimental: Intracellular Ca^2+ mobilization was analyzed using the FLIPR 5 assay kit as previously described. Briefly, pDisplay-human P2Y1 DNA clone and pcDNA-Gq DNA clone were stably expressed in NIH3T3 cells. NIH3T3-P2Y1 + Gq cells (3 × 10^5 cells/mL) were seeded in a 96-well plate and allowed to adhere overnight. An equal volume of FLIPR 5 assay kit loading buffer (Molecular Devices) was added directly to the culture medium for 1 h at room temperature, followed by 20-min incubation after adding the test compounds. Changes in intracellular Ca^2+ were measured with a FlexStation II scanning fluorometer (Molecular Devices).

[1] = test system: ADP-induced platelet aggregation; assay: Inhibition of ADP-induced platelet aggregation, 96-well light transmission aggregometry; assay type: cell-based, human; settings: for IC50: 20 μM ADP; for effect of pre-incubation / time on inhibition of ADP-induced platelet aggregation, in words: data not shown
Experimental: Platelets were isolated from 400 mL whole blood containing 56 mL of CPDA-1 anticoagulant purchased from Chung-Nam Blood Center (Daejeon, South Korea) by centrifugation at 260× g for 5 min. The resultant platelet-rich plasma was centrifuged at 370× g for 6 min, and the platelet pellet (10^9/mL) was resuspended in 45 mL plasma and stabilized by agitation for 1 h at 22 °C in blood reservoir. The product was used for experiments within 24 h. Platelet concentrate (PC) was transferred to a new 50-mL Falcon tube and the number of platelets was counted using the ABC Vet blood counter (ABX Diagnostics, Montpellier, France). A 30-mL volume of PCs from the same donor was centrifuged at 1500× g for 10 min at room temperature to obtain platelet-poor plasma (PPP). The platelet count was adjusted to 3–4 × 10^8/mL by diluting with PPP.
Inhibition of ADP-induced aggregation was assessed in a Costar 96-well flat-bottom plate (Sigma-Aldrich, St. Louis, MO, USA) at room temperature. A 188-µL volume of the diluted platelet was added to each well of the plate along with 2 µL of test compound dissolved in dimethyl sulfoxide (DMSO). The reagents were mixed by placing the plate on a shaker at 1050 rpm for 1 min. A 10-µL volume of 400 μM ADP (final concentration: 20 μM) was added to the wells, and after additional shaking at room temperature for 3 min, the absorption of the samples was read at 595 nm on a Softmax microplate reader (Molecular Devices, Sunnyvale, CA, USA). A dose-response curve was generated using serial dilutions of ADP by adding the vehicle DMSO instead of antagonists in order to calculate the half-maximal effective concentration (EC50) of ADP. Inhibition of aggregation was determined as the increase in absorption at 595 nm after 3 min of incubation relative to absorption values of control preparations (0 and 20 μM ADP without antagonists). Sigmoidal dose-response curves and half-maximal inhibitory concentration (IC50) were derived by non-linear regression analysis using Prism 5.01 software (GraphPad, San Diego, CA, USA).

rhP2Y12 receptor [2] = biological target: T2, rhP2Y12 receptor (Homo sapiens, UniProt Q9H244); assay: rhP2Y12 receptor binding assay with [3H]ADP (HEK293T membranes); settings: for IC50: 3 nM [3H]ADP, HEK293T-rhP2Y12 membranes
T2 construct: expressed in transfected cells
T2 sequence (Q9H244 whole entry): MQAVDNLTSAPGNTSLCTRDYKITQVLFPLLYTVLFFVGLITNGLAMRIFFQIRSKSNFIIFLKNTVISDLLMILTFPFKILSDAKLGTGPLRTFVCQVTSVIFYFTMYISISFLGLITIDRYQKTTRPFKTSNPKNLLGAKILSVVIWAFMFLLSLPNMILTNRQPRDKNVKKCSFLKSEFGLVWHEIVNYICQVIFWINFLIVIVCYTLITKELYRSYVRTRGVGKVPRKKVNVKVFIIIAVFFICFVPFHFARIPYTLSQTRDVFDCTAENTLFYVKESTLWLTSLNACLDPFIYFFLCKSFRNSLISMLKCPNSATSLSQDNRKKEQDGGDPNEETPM
Experimental: (§1) The pDisplay-human P2Y12 DNA clone and pDisplay-human P2Y13 DNA clone were stably expressed in HEK293T and COS-7 cells, respectively; recombinant human (rh)P2Y12- and rhP2Y13-expressing cells were resuspended in hypotonic buffer consisting of 10 mM HEPES, 10 mM NaCl, 1 mM EDTA, 1 mM EGTA (pH 7.4), and protease inhibitor cocktail. Following 15-min incubation on ice, cells were homogenized on ice using a glass/teflon homogenizer (1000 rpm, 10 strokes). The homogenate was centrifuged at 500 × g for 15 min and the supernatant was centrifuged at 100,000× g for 30 min. The membrane pellet was adjusted to 1 mg/mL with membrane buffer consisting of 10 mM HEPES, 5 mM KCl, and 130 mM NaCl (pH 7.4) and stored at −80 °C. A 100-μL volume of 0.2 mg/mL membrane protein was added to each well of a 96-well plate along with 25 μL of test compound and [3H]2-MeSADP or [3H]ADP for a total reaction volume of 0.15 mL/well. The plate was incubated for 1 h at room temperature. The reaction was terminated by passing the solution through a GF/B filter presoaked with 0.1% polyethyleneimine using a 96-well cell harvester. […] Radioactivity of the P2Y12 receptor or P2Y13 receptor bound to the membrane were measured using a scintillation TopCount instrument (PerkinElmer, Boston, MA, USA). […] Percent inhibition of binding was calculated as follows: (100—(specific binding in the presence of test material/specific binding in the absence of test material × 100)).

rhP2Y12 receptor [3] = biological target: T2, rhP2Y12 receptor; assay: rhP2Y12 receptor binding assay with [3H]-2-MeSADP (HEK293T membranes); settings: for IC50: 1 nM [3H]-2-MeSADP, HEK293T-rhP2Y12 membranes
Experimental: as §1

rhP2Y13 receptor = biological target: T3, rhP2Y13 receptor (Homo sapiens, UniProt Q9BPV8); assay: rhP2Y13 receptor [3H]2-MeSADP binding assay (COS-7 membranes)
T3 construct: expressed in transfected cells
T3 sequence (Q9BPV8 1-354): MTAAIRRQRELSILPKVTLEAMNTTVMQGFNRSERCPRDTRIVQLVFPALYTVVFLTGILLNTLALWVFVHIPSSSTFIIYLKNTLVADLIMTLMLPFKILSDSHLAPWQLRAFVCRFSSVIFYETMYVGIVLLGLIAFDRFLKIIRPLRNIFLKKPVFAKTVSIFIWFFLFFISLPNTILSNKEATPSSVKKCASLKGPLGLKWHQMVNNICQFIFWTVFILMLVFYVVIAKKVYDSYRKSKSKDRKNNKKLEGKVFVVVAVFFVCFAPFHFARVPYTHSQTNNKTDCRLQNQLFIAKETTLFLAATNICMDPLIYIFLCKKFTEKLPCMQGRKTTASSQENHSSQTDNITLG
Experimental: as §1

[4] = set-up: method as in PMID 25065553; settings: side effect of ticagrelor; cited from earlier work
[5] = read-out: IC50 vs. [3H]-2-MeSADP
[6] = Homo sapiens, Platelet, 96-well plate

IC50 (rhP2Y12 receptor [2]; read-out: IC50 vs. [3H]ADP) | IC50 (rhP2Y12 receptor [3]; [5]) [µM] | IC50 [1, 6] [µM] | Compound | further results
0.19 ± 0.1 µM | 24.8 ± 2.09 | – | Nc1ncnc2c1ncn2[C@@H]1O[C@H](COP(=O)(O)OP(=O)(O)O)[C@@H](O)[C@H]1O [ADP, Adenosine 5′-diphosphate, reference compound] | fold higher potency of ADP than 2-MeSADP in competing with [3H]ADP (rhP2Y12 receptor [2]): 90 fold; EC50 ([1]; Homo sapiens, Platelet, 96-well plate, read-out: EC50 of ADP, concentration-dependent platelet stimulation): 4.2 µM
> 30 µM | > 30 | 8.04 ± 0.51 | COc1cccc(-n2nc(C#N)c(Cl)cc2=O)c1 [Compound A, 4-chloro-1-(3-methoxyphenyl)-6-oxopyridazine-3-carbonitrile] | –
> 30 µM | > 30 | 9.49 ± 1.15 | Cn1sc(=O)c2cc(S(=O)(=O)NC3CC3)ccc21 [Compound B, N-cyclopropyl-1-methyl-3-oxo-2,1-benzothiazole-5-sulfonamide] | –
> 30 µM | > 30 | 6.08 ± 0.11 | COc1ccc(C(=O)C=CSc2nncn2C)cc1 [Compound D, 1-(4-methoxyphenyl)-3-[(4-methyl-1,2,4-triazol-3-yl)sulfanyl]prop-2-en-1-one] | –

Further lines, the compound ahead of its results:

Compound | IC50 (rhP2Y12 receptor [2]; read-out: IC50 vs. [3H]ADP) | IC50 (rhP2Y12 receptor [3]; [5]) [µM] | IC50 [1, 6] [µM] | further results
2-methylthioadenosine 5′-monophosphate [Compound 2-MeSAMP, reference compound] | – | – | – | inhibitory effect at P2Y1 receptor, in words (human P2Y1 receptor; 100 nM MRS2365): did not exert an inhibitory effect; IC50 ([1]; 96-well plate): 1.09 ± 0.16 µM
Nc1ncnc2c1ncn2[C@@H]1O[C@H](COP(=O)(O)OP(=O)(O)OP(=O)(O)O)[C@@H](O)[C@H]1O [ATP, Adenosine 5′-triphosphate, reference compound] | – | – | 2.14 ± 0.51 | –
CSc1nc(N)c2ncn([C@@H]3O[C@H](COP(=O)(O)OP(=O)(O)O)[C@@H](O)[C@H]3O)c2n1 [Compound 2-MeSADP, reference compound] | 17.2 ± 4.62 µM | 0.12 ± 0.02 | – | –
Cn1ncc(S(=O)(=O)Cc2ccccc2)c(Br)c1=O [Compound C, 5-benzylsulfonyl-4-bromo-2-methylpyridazin-3-one] | > 30 µM | > 30 | 4.03 ± 0.95 | –
CN(C)c1ccc(C(c2cc3c(cc2O)OCO3)N2CCOCC2)cc1 (stereo not shown) [Compound E, 6-[(4-dimethylamino-phenyl)-morpholin-4-yl-methyl]-benzo[1,3]dioxol-5-ol] | 8.3 µM and 8.33 µM | 15.5 | 6.21 ± 0.71 | fold higher potency vs [3H]ADP than vs [3H]2-MeSADP (rhP2Y12 receptor [2]): 1.9 fold; inhibitory effect at P2Y1 receptor, in words (human P2Y1 receptor; 100 nM MRS2365): did not exert an inhibitory effect; inhibition of [3H]2-MeS-ADP binding to rhP2Y13, in words (rhP2Y13 receptor; up to 100 μM): did not inhibit; effect of pre-incubation / time on inhibition of ADP-induced platelet aggregation, in words [1]: did not increase the potency
N#Cc1nccnc1S(=O)(=O)c1cccs1 [Compound F, 3-thiophen-2-ylsulfonylpyrazine-2-carbonitrile] | > 30 µM | > 30 | 9.35 ± 2.19 | inhibition of [3H]ADP binding to rhP2Y12, in words (rhP2Y12 receptor [2]): slightly inhibited; inhibition of [3H]-2-MeSADP binding to rhP2Y12, in words (rhP2Y12 receptor [3]): slightly inhibited
CNc1ncnc2c1ncn2[C@H]1C[C@H](OP(=O)(O)O)[C@@H](COP(=O)(O)O)O1 [MRS2179, reference compound] | – | – | – | IC50 (human P2Y1 receptor; 100 nM MRS2365, read-out: IC50, block of MRS2365 action at P2Y1 receptor): 0.66 µM; IC50 ([1]; 96-well plate): 1.1 ± 0.01 µM
Cc1nc(N=Nc2cc([N+](=O)[O-])ccc2Cl)c(COP(=O)(O)O)c(C=O)c1O [MRS2211] | – | – | – | IC50 (rhP2Y13 receptor; 1 nM [3H]2-MeSADP, read-out: IC50, inhibition of [3H]2-MeS-ADP binding to rhP2Y13): 9.4 µM
CSc1nc(N)c2ncn([C@H]3[C@H](O)[C@H](O)[C@]4(COP(=O)(O)OP(=O)(O)O)C[C@H]34)c2n1 [MRS2365] | – | – | – | EC50 (human P2Y1 receptor; Ca2+ mobilization, NIH3T3-P2Y1 + Gq cells, read-out: EC50 for P2Y1 receptor activation): 0.03 µM
CCCSc1nc(N[C@@H]2C[C@H]2c2ccc(F)c(F)c2)c2nnn([C@@H]3C[C@H](OCCO)[C@@H](O)[C@H]3O)c2n1 [Ticagrelor, reference compound] | – | – | 0.32 ± 0.02 | fold lower potency vs [3H]ADP than vs [3H]2-MeSADP (rhP2Y12 receptor [2]): 210 fold; IC50 (rhP2Y12 receptor [2]; IC50 vs. [3H]ADP): 8.4 ± 3.05 µM; inhibitory effect at P2Y1 receptor, in words (human P2Y1 receptor; 100 nM MRS2365): did not exert an inhibitory effect; selectivity, rhP2Y13 in comparison to rhP2Y12 (rhP2Y13 receptor; [3H]2-MeS-ADP binding): > 1000 fold; effect of pre-incubation / time on inhibition of ADP-induced platelet aggregation, in words [1]: time-dependent manner; shortness of breath (dyspnea) incidence [4]: 14%; IC50 (rhP2Y12 receptor [3]; IC50 vs. [3H]-2-MeSADP): 0.04 ± 0.02 µM
Nc1ncnc2c1ncn2[C@@H]1O[C@H](COP(=O)(O)OP(=O)(O)O)[C@@H](O)[C@H]1O [[^3H]ADP, reference compound] | – | – | – | Kd (rhP2Y12 receptor [2]; [3H]ADP saturation binding, read-out: Kd of radioligand at rhP2Y12 (saturation, Scatchard)): 0.0097 µM
